Test results from patent publication US9581587B2, “Sperm staining and sorting methods” (INGURAN, LLC, priority 2011, dated 2017).

Columns and labels:
sperm [1] = assay: Split quality, split enhancing dyes at various concentrations and incubation times (Example 10); assay type: cell-based, bulls; settings: for split enhancing effect compared to control: 15, 45, 125 μM, 30-75 minutes, averaged over 8 bulls; for peak to valley ratio, Average 8 bulls: 25 μM yellow food dye No. 6
Procedure: (§1) Eight bulls were collected, including 4 Jersey bulls, 3 Holstein bulls and one mixed dairy-breed. The ejaculates were collected at concentrations ranging from 1700×10^6 sperm/ml to 1100×10^6 sperm/ml and all had progressive motility of a least 60%.
Sperm from each bull was extended to 160 million per ml with a first buffer, (TALP described in table 1 at a pH 7.4) and stained with 64 μM (164/2 mL) Hoechst 33342 at 34° C. Additionally, Phenol Red, Red Food Dye No. 2, Red Food Dye No. 3, and Red Food Dye No. 4, were each tested as split enhancing dyes in the first buffer at concentrations of 15 μM, 45 μM and 125 μM. For each bull, each concentration of each dye was incubated for periods of 30 minutes, 45 minutes, 60 minutes, and 75 minutes were utilized before a second buffer with an additional dye was applied.
Each sample was then extended in an equal volume of a second buffer which comprised a 5.5 pH modified TALP having 25 μM yellow food dye No. 6 (acting as a dead quenching dye) in addition to the split enhancing dye provided in the first buffer. The second buffer was applied to every sample at 30 minutes, 45 minutes, 60 minutes, and 75 minutes. A control was additionally taken without any split enhancing dye for every bull at every time interval.
Sorting was performed on a MoFlo SX (Beckman Coulter, USA) in substantially the same manner described in Example 5. After calibration, screen shots of sorting histograms were taken and split quality was measured by peak to valley ratios in the same way described in Example 5 with reference to FIG. 4 and the resulting data, averaged over all 8 bulls, is found in Tables 18-21. Additionally, screen shots of bivariate plots were taken to measure the added dead quenching capacity of the mixed dead quenching and split enhancing dyes.

[2] = tested on: membrane compromised sperm; assay: Added dead quenching capacity from bivariate plots (Example 10, FIG. 8); assay type: cell-based, bulls; settings: with 25 μM yellow food dye No. 6, red food dye No. 4 at highest tested concentration
Procedure: as §1
Sperm from each bull was extended to 160 million per ml with a first buffer, (TALP described in table 1 at a pH 7.4) and stained with 64 μM (164/2 mL) Hoechst 33342 at 34° C. Additionally, Phenol Red, Red Food Dye No. 2, Red Food Dye No. 3, and Red Food Dye No. 4, were each tested as split enhancing dyes in the first buffer at concentrations of 15 μM, 45 μM and 125 μM. For each bull, each concentration of each dye was incubated for periods of 30 minutes, 45 minutes, 60 minutes, and 75 minutes were utilized before a second buffer with an additional dye was applied. […]
Sorting was performed on a MoFlo SX (Beckman Coulter, USA) in substantially the same manner described in Example 5. After calibration, screen shots of sorting histograms were taken and split quality was measured by peak to valley ratios in the same way described in Example 5 with reference to FIG. 4 and the resulting data, averaged over all 8 bulls, is found in Tables 18-21. […]

sperm [3] = assay: Split quality, red food dye No. 3 as added split enhancing dye (Example 9); assay type: cell-based, bull; settings: with yellow food dye No. 6 or red food dye No. 40 as dead quenching dye
Procedure: A single bull was collected for the Example 9 in the same way described in Example 5. […] The second buffer was additionally treated with concentrations of 25, 50, 100, 150, 300, or 600 μM of red food dye No. 3, as indicated in Table 6. Sorting was performed on a MoFlo SX (Beckman Coulter, USA) in substantially the same manner described in Example 6. After calibration, screen shots of sorting histograms were taken and the split quality was measured in terms of peak to valley ratios in the same way described in Example 5 with reference to FIG. 4 and the resulting data is found in Table 17.

sperm [4] = assay: Split quality, height of peak divided by height of valley (Example 5); assay type: cell-based, Jersey bull; settings: Hoechst 16 μL/2 mL
Procedure: (§2) A single Jersey bull was collected at an initial sperm concentration 1900×10^6 sperm/ml in a volume of 5 ml. The progressive motility of the sperm was 65% with normal morphologies greater than 65%.
(§3) The entire ejaculate of sperm was suspended in first staining buffer, specifically a 7.4 pH TALP described in TABLE 1, to a concentration of 160×10^6 sperm per mL (determined on nucleocounter) and divided into three aliquots of about 20 mL into 50 mL Falcon tubes and pre-warmed for 10 minutes at 34° C. The DNA selective fluorescent dye, Hoechst 33342, was added and samples were held at 34° C. for 60 minutes. 3 different Hoechst 33342 Stain Levels were used=12 μL, 14 μL and 16 μL per 2 mL (effective concentrations of 48 μM, 56 μM, 64 μM).
(§4) Preparation of the second buffer including the dead quenching dye—A 2 L bag of TALP, described in TABLE 1, was adjusted to pH 5.60 using HCl and then sterile filtered. […] For each of the four dyes tested (R40-red food dye No. 40, Y5—yellow food dye No. 5, Y6—yellow food dye No. 6 and PR—phenol red), an appropriate number of milligrams of each powder was placed in a Erlenmeyer Flask and then an exact amount of TALP pH 5.60 was added to create a 250 μM concentration of the dye. The result was a working TALP stock for each dye with a 100% (125 μM) relative amount of dye 50% relative (62.5 μM) and 20% relative (25 μM) solutions were made by dilution of 100% by TALP pH 5.60.
(§5) Single tubes of stained sperm at each of the three Hoechst 33342 concentrations were treated with TALP pH 5.60 which had no dead quenching dye present. Single tubes using Vitamin B12 (red colored chemical) with stock concentration of 15 μM (12% relative) were tested.
(§6) After this “bulk” staining for 60 minutes, 1 mL aliquots of stained sperm were combined with 1 mL aliquots of the second buffer including the dead quenching dyes. Samples sat for approximately 30 minutes at room temperature before being analyzed on a MoFlo SX (Beckman Coulter, USA) sperm sorting flow cytometer. Event rates were held as close to 13,000 as possible at the point of data acquisition.
(§7) The total number of individual treatments was 42 tubes, each containing 2 mL of stained sample. The alignment of the sorter was established using nuclei and confirmed with live sample from the 50% Red 40 series. Once good alignment was established, each tube was placed on the sorter long enough to establish a stabile dead gate population (about 30 seconds) and then a screenshot was taken and saved as a .jpeg image. This approach of rapidly documenting each sample is used to assure the most consistent alignment between all samples. Realignment of sorter will not cause differences in the intensities of live and dead gate populations but will cause differences in split quality.
(§8) FIG. 4 illustrates an example histogram. The ratio of dead gate intensity divided by live gate intensity is created by dividing the distance “A” by the distance “B” shown as a percentage. Lower values mean higher levels of quenching. The ratio of peak height divided by valley height is created by dividing the distance “C” by the distance “D”. A value of 1.00 means “no split” while higher values mean “better splits”.

sperm [5] = assay: Split quality PV (Example 6); assay type: cell-based, Jersey bull; settings: Hoechst 12 μL/2 mL, resulting pH 6.70
Procedure: (§9) A single Jersey bull was collected at an initial sperm concentration 1810×10^6 sperm/ml in a volume of 3.9 ml. The progressive motility of the sperm was 65% with normal morphologies greater than 50%.
(§10) Sperm were suspended at 320 million per mL in 30 mL a first buffer, (TALP described in table 1 at a pH 7.4) with 12 μL of Hoechst 33342 per 2 mL (48 μM) of stain and incubated for 1 hour at 34° C. Stained sperm was then placed as 1 mL aliquots in sample tubes and a 1 mL volume of the appropriate TALP was added. The same second buffer was used as example 1, namely a modified 5.60 pH TALP.
(§11) Each of the stained samples was sorted on a MoFlo SX (Beckman Coulter, USA) as described in Example 6. Screen shots were taken and the dead gate intensity and the split quality were measured in the same way described in Example 1 and recorded in TABLE 14.

[6] = tested on: membrane compromised sperm; assay: Dead gate intensity divided by live gate intensity, flow cytometer (Example 5); assay type: cell-based
Procedure: as §2, §3, §4, §5, §6, §7, §8

[7] = tested on: membrane compromised sperm; assay: Dead gate intensity, yellow 5 and phenol red at higher concentrations (Example 6); assay type: cell-based, Jersey bull; settings: for Intensity: Hoechst 12 μL/2 mL
Procedure: as §9, §10, §11

sperm [8] = settings: as dead quenching dye; cited from earlier work
[9] = split enhancing dye 125 μM, 30 Min

SMILES: Cc1c(C(=O)O)c(O)cc2c1C(=O)c1c(O)c(C3O[C@H](CO)[C@@H](O)[C@H](O)[C@H]3O)c(O)c(O)c1C2=O (stereo in doubt) [Red 4, carmine]
- split enhancing effect compared to control (sperm [1]): provides distinct improvements at all concentrations and at all times
- dead quenching capacity in combination with dead quenching dye [2]: significant increase in quenching the dead subpopulation

SMILES: O=S(=O)([O-])c1ccc2c(N=Nc3ccc(S(=O)(=O)[O-])c4ccccc34)c(O)c(S(=O)(=O)[O-])cc2c1.[Na+].[Na+].[Na+] [Red 2]
- split enhancing effect compared to control (sperm [1]): did not provide a split enhancing, or noise reducing effect
- peak to valley ratio, Average 8 bulls (sperm [1]; split enhancing dye 45 μM, 30 Min): 1.00
- peak to valley ratio, Average 8 bulls (sperm [1]; [9]): 1.00
- peak to valley ratio, Average 8 bulls (sperm [1]; split enhancing dye 125 μM, 45 Min): 1.00
- peak to valley ratio, Average 8 bulls (sperm [1]; split enhancing dye 125 μM, 60 Min): 1.00
- peak to valley ratio, Average 8 bulls (sperm [1]; split enhancing dye 125 μM, 75 Min): 1.00
- dead quenching capacity in combination with dead quenching dye [2]: strong dead quenching capacity

SMILES: O=C(O)c1ccccc1-c1c2cc(I)c(=O)c(I)c-2oc2c(I)c(O)c(I)cc12 [Red 3, 2-(6-Hydroxy-2,4,5,7-tetraiodo-3-oxo-xanthen-9-yl)benzoic acid]
- split enhancing effect compared to control (sperm [1]): provided initial split enhancements at 15 μM and 45 μM
- peak to valley ratio, Average 8 bulls (sperm [1]; [9]): 1.00
- effect of increasing concentration on split quality (sperm [3]): improved the split quality up to the concentration of 300 μM

SMILES: O=C([O-])C1=NN(c2ccc(S(=O)(=O)[O-])cc2)C(=O)/C1=N/Nc1ccc(S(=O)(=O)[O-])cc1.[Na+].[Na+].[Na+] [Yellow 5, Trisodium (4E)-5-oxo-1-(4-sulfonatophenyl)-4-[(4-sulfonatophenyl)hydrazono]-3-pyrazolecarboxylate]
- Height of Peak/Height of Valley (sperm [4]; dye 25 μM): 1.00
- Height of Peak/Height of Valley (sperm [4]; dye 62.5 μM): 1.00
- PV (sperm [5]; dye 125 μM): 1.00
- PV (sperm [5]; dye 250 μM): 1.00
- PV (sperm [5]; dye 500 μM): 1.00
- PV (sperm [5]; dye 750 μM): 1.00
- PV (sperm [5]; dye 875 μM): 1.00
- PV (sperm [5]; dye 1250 μM): 1.00
- Dead Intensity ([6]; dye 25 μM, Average over Hoechst levels): 90%
- Dead Intensity ([6]; dye 25 μM, Hoechst 12 μL/2 mL): 90%
- Dead Intensity ([6]; dye 25 μM, Hoechst 14 μL/2 mL): 90%
- Dead Intensity ([6]; dye 25 μM, Hoechst 16 μL/2 mL): 90%
- Dead Intensity ([6]; dye 62.5 μM, Average over Hoechst levels): 74%
- Dead Intensity ([6]; dye 62.5 μM, Hoechst 12 μL/2 mL): 74%
- Dead Intensity ([6]; dye 62.5 μM, Hoechst 14 μL/2 mL): 77%
- Dead Intensity ([6]; dye 62.5 μM, Hoechst 16 μL/2 mL): 70%
- Dead Intensity ([6]; dye 125 μM, Average over Hoechst levels): 57%
- Dead Intensity ([6]; dye 125 μM, Hoechst 12 μL/2 mL): 54%
- Dead Intensity ([6]; dye 125 μM, Hoechst 14 μL/2 mL): 63%
- Dead Intensity ([6]; dye 125 μM, Hoechst 16 μL/2 mL): 55%
- ability to create a dead gate population (ordering of the four dyes) ([6]; from dead and live intensity data of Table 13): better quenching properties than phenol red
- amount of dye needed for a similar dead gate intensity ratio as red food dye No. 40 and yellow food dye No. 6 [7]: about five
- Intensity ([7]; dye 125 μM, resulting pH 6.70): 63%
- Intensity ([7]; dye 250 μM, resulting pH 6.70): 48%
- Intensity ([7]; dye 500 μM, resulting pH 6.70): 43%
- Intensity ([7]; dye 750 μM, resulting pH 6.70): <30%
- Intensity ([7]; dye 875 μM, resulting pH 6.70): <30%
- Intensity ([7]; dye 1250 μM, second buffer pH 5.60, resulting pH 6.70): <30%

SMILES: CC[N+](C)(CC)CCC[n+]1c(-c2ccccc2)c2cc(N)ccc2c2ccc(N)cc21.[I-].[I-] [propidium iodine]
- toxicity to sperm (sperm [8]): toxic to sperm
